Source: ChEMBL document CHEMBL2311486, “Development of vizantin, a safe immunostimulant, based on the structure-activity relationship of trehalose-6,6'-dicorynomycolate” (J Med Chem, 2013)
The source made the active and inactive calls. The rule behind the calls is not given here.

What was measured:
[1] = system: A549; test: Immunostimulatory activity in human A549 cells assessed as induction of MIP-1beta release at 100 uM after 3 hrs by ELISA; assay type: functional, cell-based
[2] = system: Mus musculus; test: Immunostimulatory activity in ICR mouse assessed as induction of MIP-1beta release at 100 uM, iv after 2 hrs by ELISA; assay type: functional, organism-based
[3] = system: Macrophage; test: Immunostimulatory activity in ICR mouse macrophage assessed as induction of phagocytic activity at 50 uM after 2 hrs by fluorescent microsphere assay; assay type: functional, cell-based
[4] = system: Mus musculus; test: Immunostimulatory activity in ICR mouse assessed as induction of IL-6 release at 100 uM, iv after 2 hrs by ELISA; assay type: functional, organism-based
[5] = system: DLD-1; test: Immunostimulatory activity in human DLD1 cells assessed as induction of MIP-1beta release at 100 uM after 3 hrs by ELISA; assay type: functional, cell-based
[6] = system: THP-1; test: Immunostimulatory activity in human THP1 cells assessed as induction of MIP-1beta release at 100 uM after 3 hrs by ELISA; assay type: functional, cell-based
[7] = system: Salmonella typhimurium; test: Genotoxicity in Salmonella typhimurium TA98 after 30 mins by Ames test; assay type: toxicity, organism-based; settings: salmonella enterica subsp. enterica serovar typhimurium, 0.5 h
[8] = Antitumor activity against mouse B16F0 cells allografted in C57BL/6 mouse assessed as inhibition of lung metastasis at 100 ug, iv administered at 7-day interval over 14 days prior to tumor implantation measured on day 28 relative to control; assay type: functional
[9] = system: Mus musculus; test: Toxicity in mouse assessed as mortality at 50 mg, ip administered at 7-day interval; assay type: organism-based; settings: in vivo
[10] = system: THP-1; test: Cytotoxicity against human THP1 cells assessed as induction of TNF-alpha release; assay type: cell-based
[11] = system: Mus musculus; test: Antitumor activity against mouse B16F0 cells allografted in C57BL/6 mouse assessed as inhibition of lung metastasis at 500 ug, iv administered at 7-day interval over 14 days prior to tumor implantation measured on day 28 relative to control; assay type: functional
[12] = Antitumor activity against mouse B16F0 cells allografted in C57BL/6 mouse assessed as inhibition of lung metastasis at 100 ug, iv administered at 7-day interval over 14 days prior to tumor implantation measured on day 21 relative to control; assay type: functional
[13] = system: Mus musculus; test: Antitumor activity against mouse B16F0 cells allografted in C57BL/6 mouse assessed as inhibition of lung metastasis at 1000 ug, iv administered at 7-day interval over 14 days prior to tumor implantation measured on day 28 relative to control; assay type: functional
[14] = system: Macrophage; test: Immunostimulatory activity in ICR mouse macrophage assessed as induction of phagocytic activity measuring MIP-1beta secretion at 50 uM after 2 hrs by ELISA; assay type: functional, cell-based
[15] = system: Macrophage; test: Immunostimulatory activity in ICR mouse macrophage assessed as induction of phagocytic activity measuring IL-6 secretion at 50 uM after 2 hrs by ELISA; assay type: functional, cell-based

Row | SMILES | Activity [2] | Activity [3] | Activity [4] | other results
1 | CCCCCCCCCCC(CCCCCCCCCC)C(=O)OC[C@H]1O[C@H](O[C@H]2O[C@H](COC(=O)C(CCCCCCCCCC)CCCCCCCCCC)[C@@H](O)[C@H](O)[C@H]2O)[C@H](O)[C@@H](O)[C@@H]1O | Active | Active | Active | Activity [1]: inactive; Activity [5]: inactive; Activity [6]: inactive
2 | CCCCCCCCCCCCCCC(CCCCCCCCCCCCCC)C(=O)OC[C@H]1O[C@H](O[C@H]2O[C@H](COC(=O)C(CCCCCCCCCCCCCC)CCCCCCCCCCCCCC)[C@@H](O)[C@H](O)[C@H]2O)[C@H](O)[C@@H](O)[C@@H]1O | Active | – | Active | –
3 | CCCCCCCCCC(CCCCCCCCC)CC(=O)OC[C@H]1O[C@H](O[C@H]2O[C@H](COC(=O)CC(CCCCCCCCC)CCCCCCCCC)[C@@H](O)[C@H](O)[C@H]2O)[C@H](O)[C@@H](O)[C@@H]1O [VIZANTIN] | Active | Active | Active | Activity [1]: inactive; Activity [7]: Non-toxic; inhibition (INH) [8]: 57%; Activity [9]: Non-toxic; Activity [10]: Non-toxic; inhibition (INH) [11]: 62%; inhibition (INH) [12]: >98%; Activity [5]: inactive; Activity [6]: Active; inhibition (INH) [13]: 66%
4 | CCCCCCCCC(CCCCCCCC)CC(=O)OC[C@H]1O[C@H](O[C@H]2O[C@H](COC(=O)CC(CCCCCCCC)CCCCCCCC)[C@@H](O)[C@H](O)[C@H]2O)[C@H](O)[C@@H](O)[C@@H]1O | Active | – | Active | –
5 | CCCCCCCCCCCCCCC(CCCCCCCCCCCCCC)CC(=O)OC[C@H]1O[C@H](O[C@H]2O[C@H](COC(=O)CC(CCCCCCCCCCCCCC)CCCCCCCCCCCCCC)[C@@H](O)[C@H](O)[C@H]2O)[C@H](O)[C@@H](O)[C@@H]1O | Active | – | Active | –
6 | CCCCCCCCCCCC(CCCCCCCCCCC)C(=O)OC[C@H]1O[C@H](O[C@H]2O[C@H](COC(=O)C(CCCCCCCCCCC)CCCCCCCCCCC)[C@@H](O)[C@H](O)[C@H]2O)[C@H](O)[C@@H](O)[C@@H]1O | Active | – | Active | –
7 | CCCCCCCCCCCCC(CCCCCCCCCCCC)CC(=O)OC[C@H]1O[C@H](O[C@H]2O[C@H](COC(=O)CC(CCCCCCCCCCCC)CCCCCCCCCCCC)[C@@H](O)[C@H](O)[C@H]2O)[C@H](O)[C@@H](O)[C@@H]1O | Active | – | Active | –
8 | CCCCCCCCCCCCCCC[C@@H](O)[C@@H](CCCCCCCCCCCCCC)C(=O)OC[C@H]1O[C@H](O[C@H]2O[C@H](COC(=O)[C@H](CCCCCCCCCCCCCC)[C@H](O)CCCCCCCCCCCCCCC)[C@@H](O)[C@H](O)[C@H]2O)[C@H](O)[C@@H](O)[C@@H]1O | Active | Active | Active | Activity [1]: inactive; Activity [14]: Active; Activity [15]: Active; Activity [5]: inactive; Activity [6]: inactive; inhibition (INH) [13]: 41%
9 | CCCCCCCCCCCCCCC[C@@H](OC)[C@@H](CCCCCCCCCCCCCC)C(=O)OC[C@H]1O[C@H](O[C@H]2O[C@H](COC(=O)[C@H](CCCCCCCCCCCCCC)[C@@H](CCCCCCCCCCCCCCC)OC)[C@@H](O)[C@H](O)[C@H]2O)[C@H](O)[C@@H](O)[C@@H]1O | – | Active | – | Activity [14]: Active; Activity [15]: Active
10 | CCCCCCCCCCC(CCCCCCCCCC)CC(=O)OC[C@H]1O[C@H](O[C@H]2O[C@H](COC(=O)CC(CCCCCCCCCC)CCCCCCCCCC)[C@@H](O)[C@H](O)[C@H]2O)[C@H](O)[C@@H](O)[C@@H]1O | Active | – | Active | –
11 | CCCCCCCCCCCCCC(CCCCCCCCCCCCC)C(=O)OC[C@H]1O[C@H](O[C@H]2O[C@H](COC(=O)C(CCCCCCCCCCCCC)CCCCCCCCCCCCC)[C@@H](O)[C@H](O)[C@H]2O)[C@H](O)[C@@H](O)[C@@H]1O | Active | – | Active | –
12 | CCCCCCCCC(CCCCCCCC)CCC(=O)OC[C@H]1O[C@H](O[C@H]2O[C@H](COC(=O)CCC(CCCCCCCC)CCCCCCCC)[C@@H](O)[C@H](O)[C@H]2O)[C@H](O)[C@@H](O)[C@@H]1O | – | inactive | – | –
13 | CCCCCCCCC(CCCCCCCC)C(=O)OC[C@H]1O[C@H](O[C@H]2O[C@H](COC(=O)C(CCCCCCCC)CCCCCCCC)[C@@H](O)[C@H](O)[C@H]2O)[C@H](O)[C@@H](O)[C@@H]1O | Active | – | Active | –
14 | CCCCCCCCCCCCCC(CCCCCCCCCCCCC)CC(=O)OC[C@H]1O[C@H](O[C@H]2O[C@H](COC(=O)CC(CCCCCCCCCCCCC)CCCCCCCCCCCCC)[C@@H](O)[C@H](O)[C@H]2O)[C@H](O)[C@@H](O)[C@@H]1O | Active | – | Active | –
15 | CCCCCCCCCCCC(CCCCCCCCCCC)CC(=O)OC[C@H]1O[C@H](O[C@H]2O[C@H](COC(=O)CC(CCCCCCCCCCC)CCCCCCCCCCC)[C@@H](O)[C@H](O)[C@H]2O)[C@H](O)[C@@H](O)[C@@H]1O | Active | – | Active | –
16 | CCCCCCCCCCCCCCCCC(CCCCCCCCCCCCCCCC)C(=O)OC[C@H]1O[C@H](O[C@H]2O[C@H](COC(=O)C(CCCCCCCCCCCCCCCC)CCCCCCCCCCCCCCCC)[C@@H](O)[C@H](O)[C@H]2O)[C@H](O)[C@@H](O)[C@@H]1O | Active | – | Active | –
17 | CCCCCCCCCCCCC(CCCCCCCCCCCC)C(=O)OC[C@H]1O[C@H](O[C@H]2O[C@H](COC(=O)C(CCCCCCCCCCCC)CCCCCCCCCCCC)[C@@H](O)[C@H](O)[C@H]2O)[C@H](O)[C@@H](O)[C@@H]1O | Active | – | Active | –
18 | CCCCCCCCCCCC(=O)O | – | inactive | – | –
19 | CCCCCCCCCC(CCCCCCCCC)CCC(=O)OC[C@H]1O[C@H](O[C@H]2O[C@H](COC(=O)CCC(CCCCCCCCC)CCCCCCCCC)[C@@H](O)[C@H](O)[C@H]2O)[C@H](O)[C@@H](O)[C@@H]1O | – | inactive | – | –
20 | CCCCCCCCCCCCCCCCC(CCCCCCCCCCCCCC)C(=O)OC[C@H]1O[C@H](O[C@H]2O[C@H](COC(=O)C(CCCCCCCCCCCCCC)CCCCCCCCCCCCCCCC)[C@@H](O)[C@H](O)[C@H]2O)[C@H](O)[C@@H](O)[C@@H]1O (stereo not given in full) | Active | Active | Active | –
21 | CCCCCCCCCCCCCCCC(CCCCCCCCCCCCCCC)C(=O)OC[C@H]1O[C@H](O[C@H]2O[C@H](COC(=O)C(CCCCCCCCCCCCCCC)CCCCCCCCCCCCCCC)[C@@H](O)[C@H](O)[C@H]2O)[C@H](O)[C@@H](O)[C@@H]1O | Active | – | Active | –
22 | CCCCCCCCCC(CCCCCCCCC)C(=O)OC[C@H]1O[C@H](O[C@H]2O[C@H](COC(=O)C(CCCCCCCCC)CCCCCCCCC)[C@@H](O)[C@H](O)[C@H]2O)[C@H](O)[C@@H](O)[C@@H]1O | Active | – | Active | –
